Experimental data published in patent publication US7601752B2, “Pyrrolidine derivatives” (Hoffmann-La Roche Inc., priority 2005, dated 2009).

Molecular target: T1, human factor Xa (Homo sapiens, UniProt P00742)
T1 construct: purchased Enzyme Research Laboratories
Assay: Chromogenic peptide substrate (S-2222) assay, inhibition of coagulation factor Xa
Format: biochemical
Conditions: apparent dissociation constant by Cheng-Prusoff from IC50; human factor Xa 3 nM, substrate S-2222, HNPT buffer pH 7.8, room temperature
Description: Factor Xa activity was measured spectrophotometrically in microtiter plates in a final volume of 150 μl using the following conditions: Inhibition of human factor Xa (Enzyme Research Laboratories) was tested at an enzyme concentration of 3 nM using the chromogenic substrate S-2222 (Chromogenix AB, Mölndal, Sweden) at […]. The reaction kinetics of the enzyme and the substrate were linear with both time and the enzyme concentration. The inhibitors were dissolved in DMSO and tested at various concentrations up to 100 μM. The inhibitors were diluted using HNPT buffer consisting of HEPES 100 mM, NaCl 140 mM, PEG 6000 0.1% and Tween 80 0.02%, pH 7.8. The cleavage of S-2222 by human factor Xa was followed at 405 nm for 5 minutes at room temperature. The velocity of the reaction was determined by the autoreader from the slope of the linear regression fit to 7 time points (1 minute). The initial velocity for each inhibitor concentration was determined by the slope of at least 4 time points in the linear phase by a linear regression fit […]. Apparent dissociation constants Ki were calculated according to Cheng and Prusoff [Cheng, Y. C.; Prusoff, W. H. Relationship between the inhibition constant (Ki) and the concentration of the inhibitor that causes 50 percent inhibition (IC50) of an enzyme reaction. Biochem. Pharmacol. 1973, 22, 3099-3108.] based on the IC50 and the respective Km, determined previously (Ki=IC50/(1+S/Km)). The Km for the substrate used was determined under the conditions of the test with at least 5 substrate concentrations ranging from 0.5 to 15 times Km. [Lottenberg R, Hall J A, Blinder M, Binder E P, Jackson C M., The action of thrombin on peptide p-nitroanilide substrates. Substrate selectivity and examination of hydrolysis under different reaction conditions. Biochim Biophys Acta. 1983 Feb. 15; 742(3):539-57]. According to Eadie [Eadie G. S. The inhibition of cholinesterase by physostigmine and prostigmine. J. Biol. Chem. 1942, 146, 85-93.], the Km for S-2222 amounted to 613 μM.

T1 sequence (P00742 235-488 limits assumed): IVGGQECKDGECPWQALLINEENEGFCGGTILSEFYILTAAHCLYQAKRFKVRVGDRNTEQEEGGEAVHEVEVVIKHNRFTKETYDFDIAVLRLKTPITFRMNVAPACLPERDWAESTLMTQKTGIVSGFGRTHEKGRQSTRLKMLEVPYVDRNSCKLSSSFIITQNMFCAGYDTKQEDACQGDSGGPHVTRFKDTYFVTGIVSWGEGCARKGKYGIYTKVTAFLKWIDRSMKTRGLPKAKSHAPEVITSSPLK
T1 sequence (P00742 41-179 partner limits assumed): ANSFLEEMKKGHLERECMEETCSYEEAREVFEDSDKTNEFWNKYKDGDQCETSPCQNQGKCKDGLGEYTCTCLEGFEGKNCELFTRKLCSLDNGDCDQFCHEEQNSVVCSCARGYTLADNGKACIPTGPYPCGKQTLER

SMILES | Ki
O=C(N[C@H]1CC(C(=O)Nc2ccc(-n3ccccc3=O)cc2F)N(CCC(F)(F)F)C1)c1ccc(Cl)s1 (mixture of isomers) [Example 14, (S)-4-[(5-Chloro-thiophene-2-carbonyl)-amino]-1-(3,3,3-trifluoro-propyl)-pyrrolidine-2-carboxylic acid[2-fluoro-4-(2-oxo-2H-pyridin-1-yl)-phenyl]-amide] | 0.042 µM
O=C(N[C@@H]1CN[C@H](C(=O)Nc2ccc(-n3ccccc3=O)cc2F)C1)c1ccc(Cl)s1 [Example 2, (2S,4S)-4-[(5-Chloro-thiophene-2-carbonyl)-amino]-pyrrolidine-2-carboxylic acid[2-fluoro-4-(2-oxo-2H-pyridin-1-yl)-phenyl]-amide trifluoro-acetate] | 0.023 µM
N#CCN1C[C@@H](NC(=O)c2ccc(Cl)s2)C[C@H]1C(=O)Nc1ccc(-n2ccccc2=O)cc1F [Example 6, (2S,4S)-4-[(5-Chloro-thiophene-2-carbonyl)-amino]-1-cyanomethyl-pyrrolidine-2-carboxylic acid[2-fluoro-4-(2-oxo-2H-pyridin-1-yl)-phenyl]-amide] | 0.046 µM
CC(C)(C)OC(=O)N1C[C@@H](NC(=O)c2ccc(Cl)s2)C[C@H]1C(=O)Nc1ccc(-n2ccncc2=O)cc1F [Example 21, (2S,4S)-4-[(5-Chloro-thiophene-2-carbonyl)-amino]-2-[2-fluoro-4-(2-oxo-2H-pyrazin-1-yl)-phenylcarbamoyl]-pyrrolidine-1-carboxylic acid tert-butyl ester] | 0.065 µM
